Where two headings read alike, the source gives them in different places.
Columns and labels:
methaemoglobin levels = test: Linear regression of pharmacokinetic parameters against change in methaemoglobin; format: in vivo, human (African males, Mali); settings: slope (95% CI)
haemoglobin levels = test: Linear regression of pharmacokinetic parameters against change in haemoglobin; haemoglobin follow-up to 28 days; format: in vivo, human (African males, Mali); settings: for Correlation (regression slope) of AUC24 with change in haemoglobin / Correlation (regression slope) of CMAX with change in haemoglobin: slope (95% CI)
[1] = cited from earlier work
[2] = single oral PQ 0.40-0.50 mg/kg; for Half-life (terminal elimination): median (range) in Table 3; for CF, proportional conversion factor between capillary and venous drug measurements, population estimate (%RSE): plasma; for MTT, absorption mean transit time, population estimate (%RSE): each compound modelled separately
Text: (§1) This study was a part of an open-label, nonrandomized, dose-adjustment trial of the safety of SLD-PQ in G6PD-deficient and G6PD-normal males in Mali without microscopically detected malaria parasite infection. The main clinical trial was separated into two parts, i.e., Part I in adult males (aged 18–50) and Part II in children (aged 5–17). […] Only 28 adult males from the main trial provided pharmacokinetic samples and were included in this study.
(§2) After collection of day 0 samples, each participant received an oral dose of PQ according to his group assignment, after a fatty snack (biscuits) to minimized gastrointestinal symptoms. The study pharmacist prepared a dose by crushing a 15-mg tablet of PQ (Sanofi, Laval, Canada) in 15 mL of drinking water and administered the dose to the nearest 0.1 mL under direct observation. […] Capillary samples (0.5 mL) were collected at 2, 4, and 6 h post-dose. Both venous and capillary blood were collected using EDTA tubes, and centrifuged at 1100–1300×g for 10–20 min to obtain plasma samples. The samples were store immediately at − 80 °C until analysed.
(§3) All compounds were analysed using the liquid chromatography–mass spectrometry (LC–MS) method of Avula et al. [14], modified to employ an ACQUITY UHPLC™, BEH Shield RP18 column (100 mm × 2.1 mm I.D., 1.7 mm) equipped with an LC-18 guard column (Vanguard 2.1 × 5 mm, Waters Corp, Milford, MA, USA). PQ, CPQ and PQCG were separated and eluted within 10-min retention time. The mobile phase, run at a flow rate of 0.25 ml/min, consisted of 0.05% formic acid in water (A) water and 0.05% formic acid in acetonitrile (B) and was applied in a linear gradient elution. […] Samples were injected at 10 μL volume. The limits of quantification in plasma were 5 ng/mL for PQ and PQCG, and 1 ng/mL for CPQ. Quality control samples at 20 ng/mL were run at beginning and end of the batch analyses in duplicate. Intra-assay variability was less than 10%.
(§4) PQ, CPQ, and PQCG concentrations were transformed into their natural logarithms and analysed using a nonlinear mixed-effects modelling approach in NONMEM version 7.4 (Icon Development Solution, Ellicott city, MD). Pirana version 3.0.0 [15], Perl-speaks-NONMEM version 5.3.0 (PsN) [16] and R version 4.2.0 were used for automation, model evaluation, and diagnostics during the model building process. The first-order conditional estimation method with interaction (FOCE-I) was applied for the estimation method. Each compound was modelled separately. Data below the LLOQ was either omitted (M1-method) or incorporated by imputing the first LLOQ data as half of LLOQ (M6-method) [17].
(§5) Pharmacokinetic parameters were implemented as a log-normal distribution as follows: θi=θTV×expηi,θ where θi is the individual i th pharmacokinetic parameter estimate, θTV is the typical value of the population mean estimate, and ηi,θ is the inter-individual variability of the parameter θ for the i th individual, assumed to be normal distribution with zero mean and variance ω^2 . Estimated inter-individual variability below 10% was fixed to zero.
(§6) A linear association between capillary and venous plasma concentrations of all compounds was assumed and modelled using an estimated conversion factor at the population level. Unexplained residual errors were modelled separately for capillary and venous plasma concentrations and implemented as an additive error model on the log-transformed concentrations, equivalent to an exponential error on arithmetic scale.

haemoglobin = settings: G6PD-deficient individual, cited from earlier work
clinical = settings: male, human, plasma, po
Text: as §1, §2, §3, §4, §5, §6

[3] = G6PD-deficient individuals (n = 18)
[4] = G6PD-normal individuals (n = 10)
[5] = typical individual 62.5 kg, metabolites dosed as PQ molar dose 1:1
[6] = background statement, literature

Question: Which results are given for COc1cc(NC(C)CCC(=O)O)c2ncccc2c1 (stereo not drawn) [Carboxy-primaquine]?
Answer: Correlation (regression slope) of AUC24 with change in methaemoglobin (methaemoglobin levels; [3]): -1914 (95% CI: -8430 to 4602) p-value = 0.534 % mHB change per 1 ng·hr/mL; Correlation (regression slope) of CMAX with change in methaemoglobin (methaemoglobin levels; [3]): -49.4 (95% CI: -341 to 242) p-value = 0.719 % mHB change per 1 ng/mL; Correlation (regression slope) of AUC24 with change in methaemoglobin (methaemoglobin levels; [4]): 1948 (95% CI: -12127 to 16023) p-value = 0.720 % mHB change per 1 ng·hr/mL; Correlation (regression slope) of CMAX with change in methaemoglobin (methaemoglobin levels; [4]): 119 (95% CI: -351 to 589) p-value = 0.521 % mHB change per 1 ng/mL; Correlation (regression slope) of AUC24 with change in haemoglobin (haemoglobin levels; [3]): 195 (95% CI: -58.7 to 448) p = 0.123 % HB change per 1 ng·hr/mL; Correlation (regression slope) of CMAX with change in haemoglobin (haemoglobin levels; [3]): 9.27 (95% CI: -1.25 to 19.8) p = 0.0803 % HB change per 1 ng/mL; Correlation (regression slope) of AUC24 with change in haemoglobin (haemoglobin levels; [4]): -206 (95% CI: -555 to 143) p = 0.210 % HB change per 1 ng·hr/mL; Correlation (regression slope) of CMAX with change in haemoglobin (haemoglobin levels; [4]): -4.63 (95% CI: -18.4 to 9.13) p = 0.460 % HB change per 1 ng/mL; terminal half-life previously reported ([1]; healthy volunteers): 15.6 h; Half-life (terminal elimination) ([2]; n = 28): 469 (325–1870) h; AUC24, area under the concentration-time curve up to 24 h ([2]; median (range), n = 28): 8030 (1490–12,800) h × ng/mL; CMAX, maximum concentration ([2]; median (range), n = 28): 338 (74.3–546) ng/mL; TMAX, time to maximum concentration ([2]; median (range), n = 28): 4.57 (2.19–18.1) h; CF, proportional conversion factor between capillary and venous drug measurements, population estimate (%RSE) [2]: 69.1 (3.83%); terminal elimination half-life ([2]; sampling only to 24 h): approximately 19.5 days; MTT, absorption mean transit time, population estimate (%RSE) ([2]; typical individual 62.5 kg): 1.24 (11.7%) h; CL/F, apparent elimination clearance, population estimate (%RSE) [2, 5]: 0.129 (28.5%) L/h; VC/F, apparent volume of distribution of the central compartment, population estimate (%RSE) [2, 5]: 93.3 (7.00%) L

Question: Which “predicted median reduction of haemoglobin” value (haemoglobin; 0.25 mg/kg SLD-PQ, 90% CI 0.12-0.65) does the source give for COc1cc(NC(C)CCCN)c2ncccc2c1 (stereo not drawn) [Primaquine, reference compound] here?
Answer: 0.35 g/dL

Question: What about the “predicted median reduction of haemoglobin” value (haemoglobin; 0.40 mg/kg SLD-PQ, 90% CI 0.21-1.00) of the same molecule?
Answer: 0.56 g/dL

Question: And the “haemoglobin decline after PQ administration” value (haemoglobin levels; in vivo)?
Answer: no significant haemoglobin declines

Question: And the haematological safety (haemoglobin levels; in vivo, 0.5 mg/kg)?
Answer: haematologically safe

Question: And the bioavailability [1, 6]?
Answer: 96%

Question: And the terminal half-life [1, 6]?
Answer: 5 to 6 h

Question: And the Tmax (clinical)?
Answer: 0.872 h

Question: What about the half-life (clinical; Half-life (terminal elimination), median (range) in Table 3, single oral PQ 0.40-0.50 mg/kg, n = 28) of the same molecule?
Answer: ~7.42 h

Question: What about the “Half-life (terminal elimination)” value ([2]; n = 28) of the same molecule?
Answer: 7.42 (7.04–7.93) h

Question: What about the “CF, proportional conversion factor between capillary and venous drug measurements, population estimate (%RSE)” value [2] of the same molecule?
Answer: 32.9 (6.89%)

Question: What about the “MTT, absorption mean transit time, population estimate (%RSE)” value ([2]; typical individual 62.5 kg) of the same molecule?
Answer: 0.563 (18.7%) h

Question: What about the “CL/F, apparent elimination clearance, population estimate (%RSE)” value [2, 5] of the same molecule?
Answer: 15.4 (9.57%) L/h

From publication PMC11106956 (Malaria Journal, 2024)
